{
  "source": "PubChem BioAssay AID743034",
  "about": "(The Scripps Research Institute Molecular Screening Center, 2013)",
  "key": {"Pooled human microsomes": {"test_system": "Pooled human microsomes", "assay": "metabolic stability in hepatic microsomes – biochemical, LC-MS/MS, human and mouse microsomes, powder samples, ADME assay for V1a-R antagonist project, late-stage follow-up (AID 743034)", "conditions": "pooled human/mouse liver microsomes, at 1 µM, hits give high values"}, "Pooled mouse microsomes": {"test_system": "Pooled mouse microsomes", "assay": "metabolic stability in hepatic microsomes – biochemical, LC-MS/MS, human and mouse microsomes, powder samples, ADME assay for V1a-R antagonist project, late-stage follow-up (AID 743034)", "conditions": "pooled human/mouse liver microsomes, at 1 µM, hits give high values"}},
  "note": "Active and inactive are the calls of the source.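 Rule for the calls: active = half-life above 60 minutes with both human and mouse liver microsomes; inactive = half-life below 60 minutes in both species.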",
  "data": [
    {"compound": "O=C(C1CCN(c2ccc(Cl)cn2)CC1)N(CC1CC1)c1ccc(Cl)cc1", "values": [
      {"measurement": "half-life", "setting": "Pooled human microsomes", "result": "23.8 min (inactive)"},
      {"measurement": "half-life", "setting": "Pooled mouse microsomes", "result": "7.8 min (inactive)"}
    ]}
  ]
}
